System: Porphyridium sp.
Assay: Antibiotic sensitivities of Porphyridium sp. (growth in ASW supplemented with antibiotic)
Type: cell-based, Porphyridium sp. (UTEX 637)
Set-up: key to Growth: ++: no inhibition of growth rate; +: slight inhibition of growth rate; −: no growth
Conditions: for Growth: Porphyridium sp. in ASW
Description: Porphyridium sp. (UTEX 637, from the culture collection of algae at the University of Texas at Austin) cells were cultured in artificial seawater (ASW; Jones et al. Plant Physiol. 16:636-643, 1963) supplemented with different antibiotic compounds for evaluating antibiotic sensitivities.

Compound: O=C(N[C@H](CO)[C@H](O)c1ccc([N+](=O)[O-])cc1)C(Cl)Cl [Chloramphenicol]
- Growth (200 μg/ml): +
- Growth (500 μg/ml): −

Compound: C[C@@H]1C[C@@H]([C@H](O)CC2CC(=O)NC(=O)C2)C(=O)[C@@H](C)C1 [Cyclohexhimide]
- Growth (5 μM): −

Compound: CN[C@@H]1[C@@H](O)[C@@H](O[C@@H]2[C@@H](O)[C@H](O[C@H]3O[C@H]([C@@H](C)O)[C@@H](O)[C@H](O)[C@H]3N)[C@@H](N)C[C@H]2N)OC[C@]1(C)O [G418]
- Growth (2 μg/ml): +

Compound: NC[C@H]1O[C@H](O[C@H]2[C@H](O)[C@@H](O[C@H]3O[C@H](CO)[C@@H](O)[C@H](N)[C@H]3O)[C@H](N)C[C@@H]2N)[C@H](O)[C@@H](O)[C@@H]1O [Kanamycin]
- Growth (700 μg/ml): ++

Compound: CCC[C@@H]1C[C@@H](C(=O)N[C@@H]([C@H]2O[C@H](SC)[C@H](O)[C@@H](O)[C@H]2O)[C@@H](C)O)N(C)C1 [Lincomycin]
- Growth (300 μg/ml): ++

Compound: CN(Cc1cnc2nc(N)nc(N)c2n1)c1ccc(C(=O)N[C@@H](CCC(=O)O)C(=O)O)cc1 [Methotrexate]
- Growth (80 μg/ml): ++

Compound: NC[C@@H]1O[C@H](O[C@H]2[C@@H](O)[C@H](O[C@@H]3[C@@H](O)[C@H](N)C[C@H](N)[C@H]3O[C@H]3O[C@H](CO)[C@@H](O)[C@H](O)[C@H]3N)O[C@@H]2CO)[C@H](N)[C@@H](O)[C@@H]1O [Paramomycin]
- Growth (200 μg/ml): ++

Compound: CN[C@@H]1[C@H](O)[C@H](NC)[C@H]2O[C@@]3(O)C(=O)C[C@@H](C)O[C@H]3O[C@@H]2[C@H]1O [Spectinomycin]
- Growth (300 μg/ml): ++

Compound: Cc1c(N)nc([C@H](CC(N)=O)NC[C@H](N)C(N)=O)nc1C(=O)N[C@H](C(=O)N[C@H](C)[C@@H](O)[C@H](C)C(=O)N[C@H](C(=O)NCCC1=N[C@@H](c2nc(C(=O)NCCCCN=C(N)N)cs2)CS1)[C@@H](C)O)[C@@H](O[C@@H]1O[C@@H](CO)[C@@H](O)[C@H](O)[C@@H]1O[C@H]1O[C@H](CO)[C@@H](O)[C@H](OC(N)=O)[C@@H]1O)c1cnc[nH]1 [Zeocin]
- Growth of untransformed (wild-type) Porphyridium sp. (in words) (zeocin 4 μg/ml, 17 days incubation in ASW medium): no growth
- Growth of wild type Porphyridium sp. (in words) (zeocin 10 μg/ml): no growth
- Growth of Porphyridium sp. (in words) (zeocin 4-8 μg/ml): no growth

Compound: Neomycin
- Growth (150 μg/ml): ++

Compound: Phleomycin
- Growth (10 μg/ml): ++
